These are literature values, as cited in US9511035B2, “Java ginger extract and manufacturing method” (Hosoda SHC Inc., priority 2013, dated 2016).

The subject of data set [1] is rat adrenal medullary pheochromocytoma (PC12 cell). The following applies: stated in words; for NGF-like action: no data in this patent, earlier finding of the inventors (JP 2010-90053 A).
Data set [2] has as its system tyrosinase. The following applies: disclosed in JP 2003-313116 A.
The target of data set [3] is platelet-activating factor (Homo sapiens, UniProt P25105). The following applies: disclosed in JP 2003-313116 A.
Data set [4] has as its system chemokine expression. The following applies: disclosed in JP 2003-306438 A.

platelet-activating factor, sequence (P25105 whole entry): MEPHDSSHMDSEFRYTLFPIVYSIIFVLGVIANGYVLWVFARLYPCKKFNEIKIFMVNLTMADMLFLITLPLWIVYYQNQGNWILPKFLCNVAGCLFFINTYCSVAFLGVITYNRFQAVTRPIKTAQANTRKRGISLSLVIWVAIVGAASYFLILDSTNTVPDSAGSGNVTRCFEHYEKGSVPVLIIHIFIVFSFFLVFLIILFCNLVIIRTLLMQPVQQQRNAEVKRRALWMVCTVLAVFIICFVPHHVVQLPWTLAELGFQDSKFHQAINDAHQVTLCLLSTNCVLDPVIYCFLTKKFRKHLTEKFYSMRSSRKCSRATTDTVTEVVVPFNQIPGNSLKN

As for `C=C/C=C/c1ccc(OC)c(OC)c1` [monomer, phenyl butenoid monomer, reference compound], the NGF-like action entry in data set [1] is “no NGF-like action”.
For `COc1ccc(/C=C/C2CCC=CC2c2ccc(OC)c(OC)c2)cc1OC` (centres unmarked) [phenyl butenoid dimer], the tyrosinase activity-inhibiting action entry in data set [2] is listed as “tyrosinase activity-inhibiting action”. In data set [3], the platelet-activating factor antagonism entry is “platelet-activating factor antagonism”. In addition, the process extension activity result in data set [1] (PC12 cell) is recorded as “shows a process extension activity”. In data set [1] (as is the case with the NGF), the “differentiation of PC12 cell” value is reported as “induces differentiation”. Besides, the “NGF-like action (neuronal process extension action) relative to NGF” value in data set [1] (comparison with NGF) was “more effective than NGF”. For the same compound, the NGF-like action result in data set [1] is “showed an NGF-like action”. Moreover, in data set [4], the chemokine expression-inhibiting action result is “chemokine expression-inhibiting action”.
